How the values were obtained:
[1] = test system: human bone marrow-derived mesenchymal stem cells; experiment: Cell viability of mesenchymal stem cells under glucose deprivation (microscopy); type: cell-based; settings: glucose-free medium, 3 μM apicidin (12 mM lactic acid in AC/Lac12)
Experimental: To confirm the status changes of mesenchymal stem cells in glucose deprivation conditions, an existing culture medium was replaced with a glucose-free medium, and then cells were observed after a certain period of time. At this time, cells treated with glucose or lactic acid (the case of cells incubated in a glucose-free medium, the case of cells incubated in a glucose-free medium containing lactic acid, the case of cells incubated in a glucose-free medium containing apicidin, or the case of cells incubated in a glucose-free medium containing lactic acid and apicidin) were observed, and the results are shown in FIG. 1.
First, mesenchymal stem cells were cultured in a 6-well plate filled with high glucose DMEM (4 mM L-glutamine, 4500 mg/L glucose, sodium pyruvate, 10% FBS, 100 U/ml penicillin, 100 μg/ml streptomycin) for one day. After culture, the high glucose DMEM was removed, the mesenchymal stem cells were washed twice with a sterile phosphate-saline buffer solution, and a glucose-free medium was added to the mesenchymal stem cells. At this time, the case of cells incubated in a glucose-free medium, the case of cells incubated in a glucose-free medium containing 3 μM apicidin, and the case of cells incubated in a glucose-free medium containing 3 μM apicidin and 12 mM lactic acid are denoted as Veh, AC, and AC/Lac12, respectively. At 4, 7, 20, and 27 hours after incubation, the morphology of the cells was observed under a microscope and images were obtained.
To evaluate the effect of a culture medium on differentiation of mesenchymal stem cells into cardiomyocytes, as described in Example 1-2, mesenchymal stem cells were incubated in a glucose-free medium, in a glucose-free medium containing apicidin, or a glucose-free medium containing apicidin and lactic acid, and cell viability was determined.

[2] = test system: mesenchymal stem cells; experiment: qRT-PCR of cardiomyocyte-specific marker genes (GATA4, Nkx2.5, cTnI); type: cell-based, human; settings: glucose deprivation
Experimental: To determine the degree of differentiation of mesenchymal stem cells into cardiomyocytes by addition of apicidin and lactic acid under glucose deprivation conditions, the expression levels of cardiomyocyte-specific genes were quantitatively analyzed in the cells. More specifically, as in the method of Example 1-2, mesenchymal stem cells were incubated in each of the media for 4 or 20 hours. After incubation, the medium was removed from each sample, followed by washing once with PBS. Then, the mesenchymal stem cells were treated with TRIzol and incubated at room temperature for 10 minutes for cell lysis, and then chloroform was added thereto, followed by centrifugation. A supernatant obtained as a result of centrifugation was recovered, and total RNA was extracted. cDNA was synthesized from the total RNA using a reverse transcriptase (MMLV). Real-time PCR was performed using the synthesized cDNA as a template using a QuantiTect SYBR Green PCR kit to determine the expression levels of cardiomyocyte-specific marker genes (GATA4, Nkx2.5, and cTnI).
Changes in cardiomyocyte-specific gene expression by addition of apicidin or apicidin and lactic acid under glucose deprivation conditions were quantified by RT-PCR according to the method of Example 1-3.

[3] = test system: mesenchymal stem cells; experiment: Immunocytochemistry of cardiomyocyte-specific marker proteins (GATA4, cTnI); type: cell-based, human; settings: glucose deprivation, 4 hours, immunofluorescent staining
Experimental: To confirm the expression of cardiomyocyte-specific marker proteins, immunocytochemistry was performed. First, mesenchymal stem cells were inoculated into a 12-well plate filled with a high glucose DMEM medium and cultured for 1 day. Then, the mesenchymal stem cells were incubated into a glucose-free medium (Veh), a glucose-free medium containing apicidin (AC), or a glucose-free medium containing apicidin and lactic acid (AC/Lac) for 4 hours. After incubation, the cell culture medium was removed from each sample, the mesenchymal stem cells were washed once with PBS, and subsequently the cells were fixed with 3.7% formaldehyde for 15 minutes, followed by treatment with 0.1% Triton X-100 for cell permeabilization. Normal goat serum was added and incubated for 1 hour to reduce background noise. Primary antibodies such as anti-GATA4 antibodies, anti-cTnI antibodies or anti-alpha-sarcomeric actin (a-SA) antibodies were added to the samples, followed by incubation at 4° C. overnight. Then, secondary antibodies labeled with a fluorescent dye (Alexa 488 or Alexa 594) were added, followed by incubation for 1 hour. Nuclei were stained with 4′,6-diamidino-2-phenylindole (DAPI), a fluorescent dye. The samples were mounted on slide glass for observation using a fluorescence microscope. […]

apicidin
cell death ([1]; 7 hours): cell death was not observed
cell death ([1]; 20 hours): partial cell death was observed
cell death ([1]; 27 hours): cell death was significantly observed
expression levels of the marker genes (GATA4, Nkx2.5, cTnI) ([2]; 20 hours after the treatment): remarkably increased
intracellular gene expression of three cardiomyocyte-specific markers (GATA4, Nkx2.5, and cTnI) ([2]; incubation 4 or 20 hours): significantly increased
expression of GATA4 and cTnI, cardiomyocyte-specific proteins [3]: increase in the expression

— US12467035B2, “Method of differentiating mesenchymal stem cells into cardiomyocytes” (CHONNAM NATIONAL UNIVERSITY HOSPITAL, priority 2016, dated 2025)
